SMILES strings stand for the structures.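 Exposure lasted 48 hours, with cells grown in 96-well plates and compounds tested at five concentrations. Abbreviation: GI50, concentration required for 50% inhibition of growth. TGI denotes the concentration required for complete inhibition of growth.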

Results on one molecule are retold here after PubChem BioAssay (NCI).

Common to all, as to experiment: growth of human tumour cells (NCI), 48 h
Test [1] relates to MOLT-4 leukemia.
For test [2], the system named is HL-60(TB) leukemia.
The subject of test [3] is HS 578T breast.
In test [4] the test system is CCRF-CEM leukemia.
Test [5] deals with NCI/ADR-RES ovarian.
Test [6] has as its system RPMI-8226 leukemia.

Take `NC(N)=Nc1ccc(-n2nc(C(F)(F)F)cc2-c2ccc3c(ccc4ccccc43)c2)cc1`: the GI50 in test [1] was 2350 nM; in test [2], 1090 nM; in test [3], 1590 nM; in test [4] it was 2050 nM; in test [5] it was 3140 nM; in test [6] it was 2160 nM. Moreover, the TGI in test [1] came out at 4920 nM; in test [2] it was 2820 nM; in test [3] it was 4340 nM; in test [4], 5530 nM; in test [5], 15600 nM; in test [6], 5060 nM.
